Earlier results as cited in patent US9877951B2, “Method for treating dementia” (College of William and Mary, priority 2015, dated 2018).
Like-named read-outs stand apart in the source and are kept apart here.

Legend:
[1] = system: Mycobacterium tuberculosis strains; details: typical Mycobacterium tuberculosis strains
[2] = for ability of DCS to facilitate extinction: DCS for five consecutive days
[3] = not given; remark: listed apart in the source
[4] = chronic dosing at typical tuberculosis doses
[5] = storage

SMILES: N[C@@H]1CON=C1O [DCS, 3-Isoxazolidinone, 4-amino-, (4R)-(9Cl)]
- minimum inhibitory concentrations (MIC) in vitro [1]: 6 to 25 mg/L
- benefit on Alzheimer's Disease (100 mg daily administration (Tsai et al.)): positive benefit
- benefit for treatment of Alzheimer's Disease (up to 50 mg daily dosing, 410-patient trial (Fakouhi et al.)): did not have a significant benefit
- ability of DCS to facilitate extinction learning ([2]; rats exposed to DCS for 15 consecutive days): eliminated
- ability of DCS to facilitate extinction ([2]; rats, extinction paradigm 28 days later): restored
- ability of DCS to facilitate extinction ([2]; rats, extinction paradigm two days later): significantly decreased
- serum concentrations generally maintained ([3]; dose of 500 mg/day): 25 to 30 µg/mL
- time of peak serum concentrations after dosing ([3]; oral capsules): 3 to 8 h
- peak serum concentrations ([3]; sub-antimicrobial doses (less than or equal to 2 mg/kg)): less than or equal to 5 μg/mL
- recorded side effects [4]: drowsiness, depression, headache, confusion, tremor, vertigo, and memory difficulties, paresthesias, and seizure

SMILES: CN(C)CCCN1c2ccccc2CCc2ccccc21 [imipramine]
- effect on ability of DCS to facilitate extinction learning ([2]; rats, daily administration of imipramine for 15 days): blocked the ability of DCS to facilitate extinction learning

SMILES: CC(=O)C=C(C)N[C@@H]1CONC1=O [(R)-4-[(1-methyl-3-oxo-1-butenyl)-amino]-3-isoxazolidinone]
- stability relative to DCS [5]: enhanced stability relative to DCS
